Literature values, collected in paper PMC7134594 (Chemistry & Biology, 2004).

System: SARS-CoV

SMILES	inhibiting replication of SARS-CoV in vitro	other results
CSC[C@H](NC(=O)COc1cccc2cnccc12)C(=O)N[C@@H](Cc1ccccc1)[C@H](O)C(=O)N1CSC[C@H]1C(=O)NC(C)(C)C [KNI-272]	ineffective	
NC(=O)c1ncn([C@@H]2O[C@H](CO)[C@@H](O)[C@H]2O)n1 [Ribavirin, ribavirin]		anti-SARS-CoV activity in vitro: anti-SARS-CoV activity in vitro, but at concentrations that are cytotoxic
CC(C)(C)NC(=O)[C@@H]1CN(Cc2cccnc2)CCN1C[C@@H](O)C[C@@H](Cc1ccccc1)C(=O)N[C@H]1c2ccccc2C[C@H]1O [indinavir]	ineffective	
Cc1cccc(C)c1OCC(=O)N[C@@H](Cc1ccccc1)[C@@H](O)C[C@H](Cc1ccccc1)NC(=O)[C@H](C(C)C)N1CCCNC1=O [lopinavir]	ineffective	
Cc1c(O)cccc1C(=O)N[C@@H](CSc1ccccc1)[C@H](O)CN1C[C@H]2CCCC[C@H]2C[C@H]1C(=O)NC(C)(C)C [nelfinavir]		EC50 (read-out: EC50, inhibition of SARS-CoV replication): 48 nM
CC(C)c1nc(CN(C)C(=O)N[C@H](C(=O)N[C@@H](Cc2ccccc2)C[C@H](O)[C@H](Cc2ccccc2)NC(=O)OCc2cncs2)C(C)C)cs1 [ritonavir]	ineffective	
CC(C)(C)NC(=O)[C@@H]1C[C@@H]2CCCC[C@@H]2CN1C[C@@H](O)[C@H](Cc1ccccc1)NC(=O)[C@H](CC(N)=O)NC(=O)c1ccc2ccccc2n1 [saquinavir]	ineffective	
